Test results taken from US20090012085A1, “DOSAGE FORMS AND METHODS OF TREATMENT USING A TYROSINE KINASE INHIBITOR” (priority 2005, published 2009).
Like-named read-outs stand apart in the source and are kept apart here.

Experiment: Phase I dose-escalating study, plasma pharmacokinetics in patients with solid tumor
Assay type: in vivo, human
Settings: for Tmax: read-out: tmax, mean (% CV); for concentration at 4 h: nominal time 4 h; for concentration at 12 h: nominal time 12 h; for accumulation of the drug with continuous dosing: plasma exposures on Day 28 of dosing, compared to 4/1 schedule
Protocol: Cmax values, or maximum total plasma concentrations, of a compound of formula 1 can be measured according to techniques well known to those skilled in the art. For example, after a compound of formula 1 has been administered to a mammal, blood samples can be taken at fixed time points over a period of time (e.g. 24 hours) and the serum or plasma concentration of compound of formula 1 can be measured using standard analytical techniques known in the art. In vivo determinations Cmax can then be made by plotting the serum or plasma concentration of compound of formula 1 along the ordinate (y-axis) against time along the abscissa (x-axis).
The maleate salt of compound 1 was administered to human patients with solid tumor malignancies not amenable to conventional therapies in a Phase I dose-escalating multicenter study. The types of tumor malignancies included colorectal carcinoma, renal cell carcinoma, esophageal carcinoma, thymus carcinoma, mastocytosis, lung cancer and multiple endocrine neoplasia type II. Patients were treated in cohorts of 6 with escalating QD (once per day) doses of the maleate salt of compound 1 under fasting conditions. Each study cycle of 5 weeks consisted of 4 weeks of treatment followed by 1 week of rest (4/1 schedule), or continuous dosing without any rest period.
Full pharmacokinetic profiles were collected on Cycle 1 Day 1 (C1D1), Cycle 1 Day 28 (C1D28), and Cycle 2 Day 28 (C2D28). Preliminary pharmacokinetic parameters for the first 44 patients, i.e. the first 7 dosing groups, were estimated using nominal collection times and quality-controlled, non-quality assured bioanalytical data. The dosage amounts in Table 1A and Table 1B are free base equivalent amounts.

Cc1[nH]c(/C=C2\C(=O)Nc3ccc(F)cc32)c(C)c1C(=O)NC[C@H](O)CN1CCOCC1 [compound 1, 5-[(Z)-(5-fluoro-2-oxo-1,2-dihydro-3H-indol-3-ylidene)methyl]-N-[(2S)-2-hydroxy-3-morpholin-4-ylpropyl]-2,4-dimethyl-1H-pyrrole-3-carboxamide]
half-life (human, plasma, 200 mg, 200 mg QD (4/1), C1D1 (n = 6), plasma, read-out: t½, mean (% CV) (converted)): 1130 min | AUC(0-t) (human, plasma, 200 mg, 200 mg QD (4/1), C1D28 (n = 5), plasma, read-out: AUC(0-24), mean (% CV)): 8210 ng·h/mL | concentration at 24 h (human, plasma, 200 mg, 200 mg QD (4/1), C1D28 (n = 5), plasma, read-out: C(trough, 24 h), mean (% CV)): 259 ng/mL | Cmax (human, plasma, 200 mg, 200 mg QD (4/1), C1D28 (n = 5), plasma, read-out: Cmax, mean (% CV)): 561 ng/mL | Tmax (human, plasma, 200 mg, 200 mg QD (4/1), C1D28 (n = 5), plasma): 6.6 h | half-life (human, plasma, 200 mg, 200 mg QD (4/1), C1D28 (n = 5), plasma, read-out: t½, mean (% CV) (converted)): 1610 min | AUC(0-t) (human, plasma, 200 mg, 200 mg QD (4/1), C2D28 (n = 5), plasma, read-out: AUC(0-24), mean (% CV)): 6270 ng·h/mL | concentration at 24 h (human, plasma, 200 mg, 200 mg QD (4/1), C2D28 (n = 5), plasma, read-out: C(trough, 24 h), mean (% CV)): 211 ng/mL | Cmax (human, plasma, 200 mg, 200 mg QD (4/1), C2D28 (n = 5), plasma, read-out: Cmax, mean (% CV)): 375 ng/mL | Tmax (human, plasma, 200 mg, 200 mg QD (4/1), C2D28 (n = 5), plasma): 5.6 h | half-life (human, plasma, 200 mg, 200 mg QD (4/1), C2D28 (n = 5), plasma, read-out: t½, mean (% CV) (converted)): 918 min | concentration at 3 h (human, plasma, 250 mg QD, 250 mg QD 4/1 (n = 6), nominal time 3 h, read-out: Mean plasma concentration following the last dose on cycle 1 day 28): 250 ng/mL | concentration at 4 h (human, plasma, 250 mg QD, 250 mg QD 4/1 (n = 6), read-out: Mean plasma concentration following the last dose on cycle 1 day 28): 200 ng/mL | concentration at 6 h (human, plasma, 250 mg QD, 250 mg QD 4/1 (n = 6), nominal time 6 h, read-out: Mean plasma concentration following the last dose on cycle 1 day 28): 157 ng/mL | concentration at 8 h (human, plasma, 250 mg QD, 250 mg QD 4/1 (n = 6), nominal time 8 h, read-out: Mean plasma concentration following the last dose on cycle 1 day 28): 161 ng/mL | concentration at 10 h (human, plasma, 250 mg QD, 250 mg QD 4/1 (n = 6), nominal time 10 h, read-out: Mean plasma concentration following the last dose on cycle 1 day 28): 141 ng/mL | concentration at 0 h (human, plasma, 250 mg, 250 mg QD 4/1 (n = 6), nominal time 0 h, read-out: Mean plasma concentration following the last dose on cycle 1 day 28): 64.5 ng/mL | concentration at 1 h (human, plasma, 250 mg, 250 mg QD 4/1 (n = 6), nominal time 1 h, read-out: Mean plasma concentration following the last dose on cycle 1 day 28): 107 ng/mL | concentration at 2 h (human, plasma, 250 mg, 250 mg QD 4/1 (n = 6), nominal time 2 h, read-out: Mean plasma concentration following the last dose on cycle 1 day 28): 177 ng/mL | concentration at 20 h (human, plasma, 250 mg, 250 mg QD 4/1 (n = 6), nominal time 20 h, read-out: Mean plasma concentration following the last dose on cycle 1 day 28): 53.6 ng/mL | concentration at 24 h (human, plasma, 250 mg, 250 mg QD 4/1 (n = 6), nominal time 24 h, read-out: Mean plasma concentration following the last dose on cycle 1 day 28): 63 ng/mL | AUC(0-t) (human, plasma, 250 mg, 250 mg QD (4/1), C1D1 (n = 6), plasma, read-out: AUC(0-24), mean (% CV)): 7580 ng·h/mL | concentration at 24 h (human, plasma, 250 mg, 250 mg QD (4/1), C1D1 (n = 6), plasma, read-out: C(trough, 24 h), mean (% CV)): 143 ng/mL | Cmax (human, plasma, 250 mg, 250 mg QD (4/1), C1D1 (n = 6), plasma, read-out: Cmax, mean (% CV)): 848 ng/mL | Tmax (human, plasma, 250 mg, 250 mg QD (4/1), C1D1 (n = 6), plasma): 3.7 h | half-life (human, plasma, 250 mg, 250 mg QD (4/1), C1D1 (n = 6), plasma, read-out: t½, mean (% CV) (converted)): 690 min | AUC(0-t) (human, plasma, 250 mg, 250 mg QD (4/1), C1D28 (n = 4), plasma, read-out: AUC(0-24), mean (% CV)): 9810 ng·h/mL | concentration at 24 h (human, plasma, 250 mg, 250 mg QD (4/1), C1D28 (n = 4), plasma, read-out: C(trough, 24 h), mean (% CV)): 246 ng/mL | Cmax (human, plasma, 250 mg, 250 mg QD (4/1), C1D28 (n = 4), plasma, read-out: Cmax, mean (% CV)): 734 ng/mL | Tmax (human, plasma, 250 mg, 250 mg QD (4/1), C1D28 (n = 4), plasma): 4.5 h | half-life (human, plasma, 250 mg, 250 mg QD (4/1), C1D28 (n = 4), plasma, read-out: t½, mean (% CV) (converted)): 1340 min | concentration at 24 h (human, plasma, 250 mg, 250 mg QD (4/1), C2D28 (n = 4), plasma, read-out: C(trough, 24 h), mean (% CV)): 279 ng/mL | Cmax (human, plasma, 250 mg, 250 mg QD (4/1), C2D28 (n = 4), plasma, read-out: Cmax, mean (% CV)): 748 ng/mL | Tmax (human, plasma, 250 mg, 250 mg QD (4/1), C2D28 (n = 4), plasma): 5.5 h | half-life (human, plasma, 250 mg, 250 mg QD (4/1), C2D28 (n = 4), plasma, read-out: t½, mean (% CV) (converted)): 792 min | half-life (human, plasma, 4/1 schedule, blood samples for 144 hours after the last dose on Day 28, across the dose groups, read-out: longer t1/2, mean estimates): 792 to 1610 min | half-life (human, plasma, C1D1, across dose groups, read-out: mean terminal plasma half-life (t1/2) over 24 hours after dosing): 648 to 1130 min | concentration at 12 h (human, plasma, oral, 25 mg QD, 25 mg QD 4/1 (n = 6), read-out: Mean plasma concentration following the last dose on cycle 1 day 28): 30.1 ng/mL | concentration at 4 h (human, plasma, oral, 25 mg, 25 mg QD 4/1 (n = 6), read-out: Mean plasma concentration following the last dose on cycle 1 day 28): 58.3 ng/mL | AUC(0-t) (human, plasma, oral, 25 mg, 25 mg QD (4/1), C2D28 (n = 5), plasma, read-out: AUC(0-24), mean (% CV)): 794 ng·h/mL | concentration at 24 h (human, plasma, oral, 25 mg, 25 mg QD (4/1), C2D28 (n = 5), plasma, read-out: C(trough, 24 h), mean (% CV)): 21.4 ng/mL | AUC(0-t) (human, plasma, oral, 25 mg, one patient excluded from the mean, 25 mg QD 4/1, C2D28, read-out: AUC(0-24)): 7000 ng·h/mL | Cmax (human, plasma, oral, 25 mg, one patient excluded from the mean, 25 mg QD 4/1, C2D28, read-out: Cmax): 394 ng/mL | concentration at 12 h (human, plasma, oral, 50 mg QD, 50 mg QD 4/1 (n = 5), read-out: Mean plasma concentration following the last dose on cycle 1 day 28): 50.4 ng/mL | concentration at 4 h (human, plasma, oral, 50 mg, 50 mg QD 4/1 (n = 5), read-out: Mean plasma concentration following the last dose on cycle 1 day 28): 81.1 ng/mL | concentration at 12 h (human, plasma, oral, 100 mg QD, 100 mg QD 4/1 (n = 6), read-out: Mean plasma concentration following the last dose on cycle 1 day 28): 204 ng/mL | concentration at 12 h (human, plasma, oral, 100 mg, 100 mg QD Continuous (n = 4), read-out: Mean plasma concentration following the last dose on cycle 1 day 28): 377 ng/mL | concentration at 12 h (human, plasma, oral, 150 mg QD, 150 mg QD 4/1 (n = 5), read-out: Mean plasma concentration following the last dose on cycle 1 day 28): 91.3 ng/mL | concentration at 4 h (human, plasma, oral, 150 mg, 150 mg QD 4/1 (n = 5), read-out: Mean plasma concentration following the last dose on cycle 1 day 28): 231 ng/mL | concentration at 12 h (human, plasma, oral, 150 mg, 150 mg QD Continuous (n = 6), read-out: Mean plasma concentration following the last dose on cycle 1 day 28): 465 ng/mL | concentration at 12 h (human, plasma, oral, 200 mg, 200 mg QD 4/1 (n = 5), read-out: Mean plasma concentration following the last dose on cycle 1 day 28): 355 ng/mL | concentration at 12 h (human, plasma, oral, 250 mg, 250 mg QD 4/1 (n = 6), read-out: Mean plasma concentration following the last dose on cycle 1 day 28): 130 ng/mL | AUC(0-t) (human, plasma, oral, 250 mg, 250 mg QD (4/1), C2D28 (n = 4), plasma, read-out: AUC(0-24), mean (% CV)): 9770 ng·h/mL | half-life (human, plasma, oral, patients with solid tumors, read-out: effective t1/2 of elimination from plasma): 660 to 1140 min | concentration at 1 week (human, extrapolating beyond the measured plasma concentrations at 144 hours, rest period after the last dose of Cycle 1, read-out: concentration prior to the start of dosing in the following cycle): < 5 ng/mL | higher exposures on C2D28 compared with C1D28 (one patient excluded from the mean, 25 mg QD 4/1): approximately 5 fold | accumulation of the drug with continuous dosing: no unexpected accumulation | accumulation of the drug with continuous dosing (listed as compound of formula 1): no unexpected drug accumulation
